From patent publication US10729684B2, “Alkynyl dihydroquinoline sulfonamide compounds” (AMGEN INC., priority 2015, dated 2020)

What was measured:
[1] = molecular target: human PXR (Homo sapiens (Human), UniProt O75469); test: human PXR @ 2 uM POC
[2] = molecular target: hNav1.7 (Homo sapiens (Human), UniProt Q15858); test: Nav 1.7 IWQ in vitro assay (IonWorks Quattro population patch-clamp); type: cell-based; details: HEK 293 cells stably transfected with Nav 1.7
Procedure: Nav 1.7 or Nav 1.5 IWQ In Vitro Assay
HEK 293 Cells stably transfected with either Nav 1.7 or Nav 1.5 were recorded in population patch-clamp mode with the IonWorks® Quattro automated electrophysiology system in accordance with the manufacturer's specifications (Molecular Devices, LLC, Sunnyvale, Calif.). Sodium channel currents were measured in response to a train of depolarizations that induced successively greater inactivation.
Cells were held at −110 mV for three seconds (Nav 1.7) or half a second (Nav 1.5) from a holding voltage of −15 mV, then put through a series of 26 pulses of 150 msec duration to −20 mV at a frequency of 5 Hz. Cells were then left unclamped for a period of 3 to 8 minutes while a single concentration of test compound was added. Cells were then reclamped and put through the same voltage protocol. Current at the end of the 26th pulse to −20 mV was subtracted from the peak current evoked by the 26th pulse to −20 mV to correct for leak current. Percent block was calculated for each concentration in duplicate, and IC50 curves were fitted to percent block as a function of concentration.

[3] = RLM in vitro; details: b278 calls it HLM data in vitro
[4] = molecular target: human Nav1.7 (Homo sapiens (Human), UniProt Q15858); test: Nav 1.7 in vitro PX assay (PatchXpress whole cell voltage clamp); type: cell-based; details: HEK 293 cells stably transfected with human Nav1.7, partially inactivated state, read-out: hNav1.7 PX IC50
Sequence of human Nav1.7 (Q15858 whole entry): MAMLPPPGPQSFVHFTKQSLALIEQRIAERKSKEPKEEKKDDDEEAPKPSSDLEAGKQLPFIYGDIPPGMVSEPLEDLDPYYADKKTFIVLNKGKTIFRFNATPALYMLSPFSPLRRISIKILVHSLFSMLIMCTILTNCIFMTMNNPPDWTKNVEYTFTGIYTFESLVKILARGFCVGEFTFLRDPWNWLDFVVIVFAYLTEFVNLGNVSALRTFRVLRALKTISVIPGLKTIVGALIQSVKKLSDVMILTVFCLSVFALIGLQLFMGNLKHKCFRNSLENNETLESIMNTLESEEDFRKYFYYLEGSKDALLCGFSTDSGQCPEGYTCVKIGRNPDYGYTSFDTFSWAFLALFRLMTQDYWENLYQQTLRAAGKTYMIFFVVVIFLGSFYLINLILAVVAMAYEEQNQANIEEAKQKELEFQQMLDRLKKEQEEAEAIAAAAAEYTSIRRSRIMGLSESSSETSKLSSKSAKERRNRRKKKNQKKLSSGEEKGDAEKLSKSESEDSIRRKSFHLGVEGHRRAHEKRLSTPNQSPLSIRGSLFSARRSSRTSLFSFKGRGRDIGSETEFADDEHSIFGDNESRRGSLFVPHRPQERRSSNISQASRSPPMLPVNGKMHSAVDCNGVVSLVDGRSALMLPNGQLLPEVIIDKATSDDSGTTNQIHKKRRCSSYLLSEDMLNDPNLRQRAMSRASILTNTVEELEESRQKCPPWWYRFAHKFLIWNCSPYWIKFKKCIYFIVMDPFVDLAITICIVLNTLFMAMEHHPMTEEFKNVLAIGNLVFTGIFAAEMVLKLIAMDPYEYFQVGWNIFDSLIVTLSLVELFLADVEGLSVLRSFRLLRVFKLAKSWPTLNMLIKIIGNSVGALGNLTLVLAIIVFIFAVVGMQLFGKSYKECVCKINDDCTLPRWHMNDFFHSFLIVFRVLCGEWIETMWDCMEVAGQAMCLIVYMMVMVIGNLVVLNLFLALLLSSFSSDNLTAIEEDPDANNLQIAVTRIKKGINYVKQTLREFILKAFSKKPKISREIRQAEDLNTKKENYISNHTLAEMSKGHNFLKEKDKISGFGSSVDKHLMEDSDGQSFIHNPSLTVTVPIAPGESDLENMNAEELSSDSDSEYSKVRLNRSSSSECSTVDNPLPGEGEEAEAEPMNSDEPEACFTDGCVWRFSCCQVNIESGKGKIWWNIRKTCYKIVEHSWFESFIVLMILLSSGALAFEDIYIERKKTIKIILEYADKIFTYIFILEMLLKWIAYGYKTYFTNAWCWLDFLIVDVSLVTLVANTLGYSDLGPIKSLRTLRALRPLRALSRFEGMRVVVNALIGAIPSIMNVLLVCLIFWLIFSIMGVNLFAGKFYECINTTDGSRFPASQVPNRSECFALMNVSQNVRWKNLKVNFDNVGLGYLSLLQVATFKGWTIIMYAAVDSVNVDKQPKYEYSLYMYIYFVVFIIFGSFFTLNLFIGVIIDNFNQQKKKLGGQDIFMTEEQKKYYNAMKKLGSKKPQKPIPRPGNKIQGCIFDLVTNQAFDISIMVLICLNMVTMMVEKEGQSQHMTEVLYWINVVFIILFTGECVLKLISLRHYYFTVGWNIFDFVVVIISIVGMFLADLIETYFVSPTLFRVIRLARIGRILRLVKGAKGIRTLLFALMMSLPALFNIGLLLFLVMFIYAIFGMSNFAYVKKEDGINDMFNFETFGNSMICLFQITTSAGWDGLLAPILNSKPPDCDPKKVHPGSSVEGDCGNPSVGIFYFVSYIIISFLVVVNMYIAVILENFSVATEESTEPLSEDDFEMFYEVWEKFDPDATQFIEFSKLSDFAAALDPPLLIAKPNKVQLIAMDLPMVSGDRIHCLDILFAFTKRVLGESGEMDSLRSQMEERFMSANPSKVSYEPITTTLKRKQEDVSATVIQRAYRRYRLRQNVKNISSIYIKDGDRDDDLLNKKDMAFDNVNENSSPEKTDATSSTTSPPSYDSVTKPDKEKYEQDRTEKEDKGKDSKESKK
Procedure: Nav 1.7 In Vitro PX Assay
HEK 293 cells stably transfected with human Nav1.7 were recorded in whole cell voltage clamp mode with the PatchXpress automated electrophysiology system (Molecular Devices, LLC, Sunnyvale, Calif.). Compound effects were measured on a partially inactivated state of the sodium channel. Cells were clamped to a holding potential yielding 20 to 50% inactivation. To elicit sodium current, channels were activated by pulsing to −10 mV for 20 msec. This voltage protocol was repeated at a rate of 0.1 Hz throughout the experiment. A single concentration of test compound was applied to cells for a duration of 3 minutes. Peak sodium current was measured at the end of the compound addition period to determine percent inhibition. Three to five cells were tested per concentration, and IC50 curves were fitted to percent inhibition as a function of concentration.

Sequence of hNav1.7 (Q15858 whole entry): as above
Sequence of human PXR (O75469 whole entry): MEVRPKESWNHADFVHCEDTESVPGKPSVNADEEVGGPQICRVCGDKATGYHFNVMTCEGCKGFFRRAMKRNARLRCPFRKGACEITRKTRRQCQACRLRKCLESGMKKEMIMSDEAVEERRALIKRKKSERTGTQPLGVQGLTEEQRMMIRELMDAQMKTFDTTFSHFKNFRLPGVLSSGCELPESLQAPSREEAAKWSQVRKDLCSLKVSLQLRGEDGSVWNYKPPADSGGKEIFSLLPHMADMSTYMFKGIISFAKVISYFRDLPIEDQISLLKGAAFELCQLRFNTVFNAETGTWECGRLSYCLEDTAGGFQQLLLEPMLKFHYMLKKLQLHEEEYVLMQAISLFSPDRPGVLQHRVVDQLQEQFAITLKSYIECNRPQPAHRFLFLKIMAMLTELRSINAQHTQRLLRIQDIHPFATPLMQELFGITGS

Row | Structure (SMILES) | human PXR @ 2 uM POCS [1] [%] | IC50 [2] [nM] | RLM in vitro [3] [µL/min/mg] | IC50 [4] [nM]
1 | COc1cc(C#CC2CCC(F)(F)CC2)c(F)cc1-n1c(=O)ccc2cc(S(=O)(=O)Nc3ccon3)ccc21 (atropisomer, axis not shown; (P)) [Example 1, (P)-1-(4-((4,4-difluorocyclohexyl)ethynyl)-5-fluoro-2-methoxyphenyl)-N-(isoxazol-3-yl)-2-oxo-1,2-dihydroquinoline-6-sulfonamide] | 2.36 | 3.3 | <14.0 | –
2 | COc1cc(C#CC(C)(C)C(F)(F)F)c(F)cc1-n1c(=O)ccc2cc(S(=O)(=O)Nc3ccon3)ccc21 (atropisomer, axis not shown; (P)) [Example 2, (P)-1-(5-fluoro-2-methoxy-4-(4,4,4-trifluoro-3,3-dimethylbut-1-yn-1-yl)phenyl)-N-(isoxazol-3-yl)-2-oxo-1,2-dihydroquinoline-6-sulfonamide] | 1.38 | 1.2 | <14.0 | –
3 | COc1cc(C#CC2CCCC2)ccc1-n1c(=O)ccc2cc(S(=O)(=O)Nc3ccon3)ccc21 (atropisomer, axis not shown; (P)) [Example 3, (P)-1-(4-(cyclopentylethynyl)-2-methoxyphenyl)-N-(isoxazol-3-yl)-2-oxo-1,2-dihydroquinoline-6-sulfonamide] | −1.44 | 7.5 | 39 | 49.7
4 | COc1cc(C#C[C@H]2C[C@@H]2C(F)(F)F)c(F)cc1-n1c(=O)ccc2cc(S(=O)(=O)Nc3ccon3)ccc21 (atropisomer, axis not shown; (P)) [Example 4, (P)-1-(5-fluoro-2-methoxy-4-((2-(trifluoromethyl)cyclopropyl)ethynyl)phenyl)-N-(isoxazol-3-yl)-2-oxo-1,2-dihydroquinoline-6-sulfonamide] | 13.54 | – | <14.0 | –
5 | COc1cc(C#CC2(C(F)(F)F)CC2)c(F)cc1-n1c(=O)ccc2cc(S(=O)(=O)Nc3ccon3)ccc21 (atropisomer, axis not shown; (P)) [Example 5, (P)-1-(5-fluoro-2-methoxy-4-((1-(trifluoromethyl)cyclopropyl)ethynyl)phenyl)-N-(isoxazol-3-yl)-2-oxo-1,2-dihydroquinoline-6-sulfonamide] | 1.73 | – | <14.0 | –
6 | COc1cc(C#CC2CCCC2)c(Cl)cc1-n1c(=O)ccc2cc(S(=O)(=O)Nc3ccon3)ccc21 (atropisomer, axis not shown; (P)) [Example 6, (P)-1-(5-chloro-4-(cyclopentylethynyl)-2-methoxyphenyl)-N-(isoxazol-3-yl)-2-oxo-1,2-dihydroquinoline-6-sulfonamide] | −3.96 | – | 58 | –
7 | COc1cc(C#CC2CCCC(F)(F)C2)c(F)cc1-n1c(=O)ccc2cc(S(=O)(=O)Nc3ccon3)ccc21 (atropisomer, axis not shown; (P)) [Example 7, (P) 1-(4-((3,3-difluorocyclohexyl)ethynyl)-5-fluoro-2-methoxyphenyl)-N-(isoxazol-3-yl)-2-oxo-1,2-dihydroquinoline-6-sulfonamide] | −0.78 | – | <14.0 | –
8 | COc1cc(C#CC2CCCC2)c(F)cc1-n1c(=O)ccc2cc(S(=O)(=O)Nc3ccon3)ccc21 (atropisomer, axis not shown; (P)) [Example 10, (P)-1-(4-(cyclopentylethynyl)-5-fluoro-2-methoxyphenyl)-N-3-isoxazolyl-2-oxo-1,2-dihydro-6-quinoline Sulfonamide] | 2.94 | – | 39.8 | –
9 | COc1cc(C#CC2CCCC(F)(F)C2)c(F)cc1-n1c(=O)ccc2cc(S(=O)(=O)Nc3ccon3)ccc21 (racemic) [Example 7, (P) 1-(4-((3,3-difluorocyclohexyl)ethynyl)-5-fluoro-2-methoxyphenyl)-N-(isoxazol-3-yl)-2-oxo-1,2-dihydroquinoline-6-sulfonamide] | – | 7.8 | – | –
10 | COc1cc(C#C[C@@H]2C[C@@H]2C(F)(F)F)c(F)cc1-n1c(=O)ccc2cc(S(=O)(=O)Nc3ccon3)ccc21 (single isomer, unassigned) [Example 4A] | 23.19 | 6.8 | <14.0 | –
11 | COc1cc(C#C[C@H]2C[C@@H]2C(F)(F)F)c(F)cc1-n1c(=O)ccc2cc(S(=O)(=O)Nc3ccon3)ccc21 (stereo in doubt) [Example 4, (P)-1-(5-fluoro-2-methoxy-4-((2-(trifluoromethyl)cyclopropyl)ethynyl)phenyl)-N-(isoxazol-3-yl)-2-oxo-1,2-dihydroquinoline-6-sulfonamide] | – | 7 | – | –
12 | COc1cc(C#C[C@@H]2C[C@H]2C(F)(F)F)c(F)cc1-n1c(=O)ccc2cc(S(=O)(=O)Nc3ccon3)ccc21 (stereo in doubt) [Example 4B, 1-(5-fluoro-2-methoxy-4-(((1R,2R)-2-(trifluoromethyl)cyclopropyl)ethynyl)phenyl)-N-3-isoxazolyl-2-oxo-1,2-dihydro-6-quinolinesulfonamide] | −3.81 | 5.5 | <14.0 | –
13 | COc1cc(C#CC2CCCC2)c(F)cc1-n1c(=O)ccc2cc(S(=O)(=O)Nc3cccnn3)ccc21 [Example 9] | 11.80 | 8.95 | 32.2 | 19.3
